From US11944622B2 (Annapurna Bio, Inc., priority 2018, dated 2024)

Target: T1, APJ Receptor (Homo sapiens, UniProt P35414)
T1 sequence (P35414 1-380): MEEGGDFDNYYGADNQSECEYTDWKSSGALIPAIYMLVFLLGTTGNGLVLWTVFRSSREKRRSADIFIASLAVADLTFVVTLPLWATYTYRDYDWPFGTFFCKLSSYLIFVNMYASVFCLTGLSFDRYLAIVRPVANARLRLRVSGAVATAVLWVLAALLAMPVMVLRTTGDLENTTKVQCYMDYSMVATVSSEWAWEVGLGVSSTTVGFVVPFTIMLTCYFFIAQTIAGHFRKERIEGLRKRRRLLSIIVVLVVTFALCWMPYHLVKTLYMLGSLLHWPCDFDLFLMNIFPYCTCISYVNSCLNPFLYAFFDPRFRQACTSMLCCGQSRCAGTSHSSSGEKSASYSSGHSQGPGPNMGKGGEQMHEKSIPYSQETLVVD
Test: APJ cAMP assay (DiscoverX enzyme fragment complementation; inhibition of forskolin-stimulated cAMP)
Format: cell-based
Conditions: CHO-K1 cell line stably expressing the APJ Receptor; EC80 forskolin; 30 minutes at 37° C.; read-out: Potency Range (APJ cAMP EC50)
Method in brief: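 CHO-K1 cells stably expressing APJ incubated with compound plus EC80 forskolin for 30 min at 37° C. cAMP detected by β-galactosidase enzyme fragment complementation with chemiluminescent read-out; % activity calculated relative to vehicle and maximal controls.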

SMILES	EC50 [nM]
CCOc1cccc(-c2nc3ncc(NCC4CC4)nc3n2-c2c(OC)cccc2OC)n1 [Example 67, N-(cyclopropylmethyl)-1-(2,6-dimethoxyphenyl)-2-(6-ethoxypyridin-2-yl)-1H-imidazo[4,5-b]pyrazin-6-amine]	1 to 100
CCOc1cccc(-c2nc3ncc(NS(C)(=O)=O)nc3n2-c2c(OC)ccnc2OC)n1 [Example 68, N-(1-(2,4-dimethoxypyridin-3-yl)-2-(6-ethoxypyridin-2-yl)-1H-imidazo[4,5-b]pyrazin-6-yl)methanesulfonamide]	1 to 100
CCOc1cccc(-c2nc3ncc(NS(=O)(=O)Cc4cnccn4)nc3n2-c2c(OC)cccc2OC)n1 [Example 69, N-(1-(2,6-dimethoxyphenyl)-2-(6-ethoxypyridin-2-yl)-1H-imidazo[4,5-b]pyrazin-6-yl)-1-(pyrazin-2-yl)methanesulfonamide]	1 to 100
CCOc1cccc(-c2nc3ncc(NS(=O)(=O)CC(C)(C)O)nc3n2-c2c(OC)cccc2OC)n1 [Example 70]	1 to 100
CCOc1cccc(-c2nc3ncc(NS(=O)(=O)N4CCCC4)nc3n2-c2c(OC)cccc2OC)n1 [Example 73, N-(1-(2,6-dimethoxyphenyl)-2-(6-ethoxypyridin-2-yl)-1H-imidazo[4,5-b]pyrazin-6-yl)pyrrolidine-1-sulfonamide]	1 to 100
CCOc1cccc(-c2nc3ncc(NS(=O)(=O)N4CCNCC4)nc3n2-c2c(OC)cccc2OC)n1 [Example 74, N-(1-(2,6-Dimethoxyphenyl)-2-(6-ethoxypyridin-2-yl)-1H-imidazo[4,5-b]pyrazin-6-yl)piperazine-1-sulfonamide]	1 to 100
CCOc1cccc(-c2nc3ncc(NS(=O)(=O)N(C)C)nc3n2-c2c(OC)cccc2OC)n1 [Example 76, N-(1-(2,6-dimethoxyphenyl)-2-(6-ethoxypyridin-2-yl)-1H-imidazo[4,5-b]pyrazin-6-yl)-N′,N′-dimethylsulfamide]	1 to 100
CCOc1cccc(-c2nc3ncc(NS(=O)(=O)C[C@H]4C[C@](C)(O)C4)nc3n2-c2c(OC)cccc2OC)n1 [Example 81, trans-N-(1-(2,6-Dimethoxyphenyl)-2-(6-ethoxypyridin-2-yl)-1H-imidazo[4,5-b]pyrazin-6-yl)-1-((1r,3r)-3-hydroxy-3-methylcyclobutyl)methanesulfonamide]	1 to 100
CC#CCS(=O)(=O)Nc1cnc2nc(-c3cccc(OCC)n3)n(-c3c(OC)cccc3OC)c2n1 [Example 82, N-(1-(2,6-Dimethoxyphenyl)-2-(6-ethoxypyridin-2-yl)-1H-imidazo[4,5-b]pyrazin-6-yl)but-2-yne-1-sulfonamide]	1 to 100
CCOc1cccc(-c2nc3nc(CC)c(NS(C)(=O)=O)nc3n2-c2c(OC)cccc2OC)n1 [Example 86, N-(1-(2,6-dimethoxyphenyl)-2-(6-ethoxypyridin-2-yl)-5-ethyl-1H-imidazo[4,5-b]pyrazin-6-yl)methanesulfonamide]	1 to 100
CCOc1cccc(-c2nc3nc(C)c(NS(C)(=O)=O)nc3n2-c2c(OC)cccc2OC)n1 [Example 87, N-(1-(2,6-Dimethoxyphenyl)-2-(6-ethoxypyridin-2-yl)-5-methyl-1H-imidazo[4,5-b]pyrazin-6-yl)methanesulfonamide]	1 to 100
CCOc1cccc(-c2nc3nc(OC4CC4)c(NS(C)(=O)=O)nc3n2-c2c(OC)cccc2OC)n1 [Example 89, N-(5-Cyclopropoxy-1-(2,6-dimethoxyphenyl)-2-(6-ethoxypyridin-2-yl)-1H-imidazo[4,5-b]pyrazin-6-yl)methanesulfonamide]	100 to 10000
CCOc1cccc(-c2nc3nc(NS(=O)(=O)C4CC4)cnc3n2-c2c(OC)cccc2OC)n1 [Example 92, N-(1-(2,6-Dimethoxyphenyl)-2-(6-ethoxypyridin-2-yl)-1H-imidazo[4,5-b]pyrazin-5-yl)cyclopropanesulfonamide]	1 to 100
CCOc1cccc(-c2nc3nc(NS(=O)(=O)CC4(O)CNC4)cnc3n2-c2c(OC)cccc2OC)n1 [Example 93, N-(1-(2,6-Dimethoxyphenyl)-2-(6-ethoxypyridin-2-yl)-1H-imidazo[4,5-b]pyrazin-5-yl)-1-(3-hydroxyazetidin-3-yl)methanesulfonamide]	< 1
CCOc1cccc(-c2nc3nc(Cl)c(NS(=O)(=O)Cc4ncccc4F)nc3n2-c2c(OC)cccc2OC)n1 [Example 94, N-(5-Chloro-1-(2,6-dimethoxyphenyl)-2-(6-ethoxypyridin-2-yl)-1H-imidazo[4,5-b]pyrazin-6-yl)-1-(3-fluoropyridin-2-yl)methanesulfonamide]	1 to 100
CCOc1cccc(-c2nc3nc(Cl)c(NS(=O)(=O)Cc4ccccn4)nc3n2-c2c(OC)cccc2OC)n1 [Example 95, N-(5-Chloro-1-(2,6-dimethoxyphenyl)-2-(6-ethoxypyridin-2-yl)-1H-imidazo[4,5-b]pyrazin-6-yl)-1-(pyridin-2-yl)methanesulfonamide]	1 to 100
CCOc1cccc(-c2nc3nc(Cl)c(NS(=O)(=O)Cc4ccc(F)cn4)nc3n2-c2c(OC)cccc2OC)n1 [Example 96, N-(5-Chloro-1-(2,6-dimethoxyphenyl)-2-(6-ethoxypyridin-2-yl)-1H-imidazo[4,5-b]pyrazin-6-yl)-1-(5-fluoropyridin-2-yl)methanesulfonamide]	< 1
CCOc1cccc(-c2nc3nc(Cl)c(NS(=O)(=O)C4CC4)nc3n2-c2c(OC)cccc2OC)n1 [Example 97, N-(5-Chloro-1-(2,6-dimethoxyphenyl)-2-(6-ethoxypyridin-2-yl)-1H-imidazo[4,5-b]pyrazin-6-yl)cyclopropanesulfonamide]	1 to 100
CCOc1cccc(-c2nc3nc(Cl)c(NS(=O)(=O)N4CCOCC4)nc3n2-c2c(OC)cccc2OC)n1 [Example 98, N-(5-Chloro-1-(2,6-dimethoxyphenyl)-2-(6-ethoxypyridin-2-yl)-1H-imidazo[4,5-b]pyrazin-6-yl)morpholine-4-sulfonamide]	1 to 100

Continued, values first:

EC50 [nM]	SMILES
< 1	CCOc1cccc(-c2nc3ncc(NS(=O)(=O)C[C@H]4CCN(C)C(=O)C4)nc3n2-c2c(OC)cccc2OC)n1 [Example 71, (S)—N-(1-(2,6-Dimethoxyphenyl)-2-(6-ethoxypyridin-2-yl)-1H-imidazo[4,5-b]pyrazin-6-yl)-1-(1-methyl-2-oxopiperidin-4-yl)methanesulfonamide]
< 1	CCOc1cccc(-c2nc3ncc(NS(=O)(=O)C[C@@H]4CCN(C)C(=O)C4)nc3n2-c2c(OC)cccc2OC)n1 [Example 72, (R)—N-(1-(2,6-dimethoxyphenyl)-2-(6-ethoxypyridin-2-yl)-1H-imidazo[4,5-b]pyrazin-6-yl)-1-(1-methyl-2-oxopiperidin-4-yl)methanesulfonamide]
< 1	CCOc1cccc(-c2nc3ncc(NS(=O)(=O)N4CCCCC4)nc3n2-c2c(OC)cccc2OC)n1 [Example 75, N-(1-(2,6-dimethoxyphenyl)-2-(6-ethoxypyridin-2-yl)-1H-imidazo[4,5-b]pyrazin-6-yl)piperidine-1-sulfonamide]
< 1	CCOc1cccc(-c2nc3ncc(NS(=O)(=O)N(C)C4CC4)nc3n2-c2c(OC)cccc2OC)n1 [Example 77, N-(1-(2,6-dimethoxyphenyl)-2-(6-ethoxypyridin-2-yl)-1H-imidazo[4,5-b]pyrazin-6-yl)-N′-methyl-N′-cyclopropylsulfamide]
< 1	CCOc1cccc(-c2nc3ncc(NS(=O)(=O)Cc4ccc(F)cn4)nc3n2-c2c(OC)cccc2OC)n1 [Example 78, N-(1-(2,6-dimethoxyphenyl)-2-(6-ethoxypyridin-2-yl)-1H-imidazo[4,5-b]pyrazin-6-yl)-1-(5-fluoropyridin-2-yl)methanesulfonamide]
< 1	CCOc1cccc(-c2nc3ncc(NS(=O)(=O)Cc4ncc(F)cn4)nc3n2-c2c(OC)cccc2OC)n1 [Example 79, N-(1-(2,6-dimethoxyphenyl)-2-(6-ethoxypyridin-2-yl)-1H-imidazo[4,5-b]pyrazin-6-yl)-1-(5-fluoropyrimidin-2-yl)methanesulfonamide]
< 1	CCOc1cccc(-c2nc3ncc(NS(=O)(=O)Cc4ncc(C)cn4)nc3n2-c2c(OC)cccc2OC)n1 [Example 80, N-(1-(2,6-dimethoxyphenyl)-2-(6-ethoxypyridin-2-yl)-1H-imidazo[4,5-b]pyrazin-6-yl)-1-(5-methylpyrimidin-2-yl)methanesulfonamide]
< 1	CCOc1cccc(-c2nc3ncc(NS(=O)(=O)Cc4ccc(C)cn4)nc3n2-c2c(OC)cccc2OC)n1 [Example 83, N-(1-(2,6-Dimethoxyphenyl)-2-(6-ethoxypyridin-2-yl)-1H-imidazo[4,5-b]pyrazin-6-yl)-1-(5-methylpyridin-2-yl)methanesulfonamide]
< 1	CCOc1cccc(-c2nc3nc(CC4CCC4)c(NS(C)(=O)=O)nc3n2-c2c(OC)cccc2OC)n1 [Example 88]
< 1	CCOc1cccc(-c2nc3nc(NS(=O)(=O)N4CCOCC4)cnc3n2-c2c(OC)cccc2OC)n1 [Example 90, N-(1-(2,6-Dimethoxyphenyl)-2-(6-ethoxypyridin-2-yl)-1H-imidazo[4,5-b]pyrazin-5-yl)morpholine-4-sulfonamide]
< 1	CCOc1cccc(-c2nc3nc(NS(=O)(=O)Cc4ncc(C)cn4)cnc3n2-c2c(OC)cccc2OC)n1 [Example 91, N-(1-(2,6-Dimethoxyphenyl)-2-(6-ethoxypyridin-2-yl)-1H-imidazo[4,5-b]pyrazin-5-yl)-1-(5-methylpyrimidin-2-yl)methanesulfonamide]
